Measured values published in patent EP4741401A1, “BENZOTHIAZOIMIDAZOLYL COMPOUND AND USE THEREOF” (ER Stress Research Institute, Inc., priority 2023, dated 2025).

Assays:
[1] = system: endogenous molecular chaperones; assay: Induction of endogenous molecular chaperones in cells; type: cell-based; details: applied to cells
[2] = system: Familial neurogenic diabetes insipidus model mice; assay: Suppression of urine output increase in FNDI model mice; type: in vivo; details: oral, 30 mg/kg/day or 100 mg/kg/day, once daily for 28 days
Experimental: Familial neurogenic diabetes insipidus model mice created by Arima et al. at Nagoya University and carrying a knock-in mutation (Cys98stop) in the neurophysin II gene that causes familial neurogenic diabetes insipidus (FNDI) in humans (Am J Physiol Regul Integr Comp Physiol 2009 296:R1641-9) were divided into two groups. To each group, an IBT-30-containing preparation was forcibly administered orally such that the dosage of IBT-30 was 30 mg/kg/day or 100 mg/kg/day (n=6). The IBT-30-containing preparation was prepared as a suspension of IBT-30 at a final concentration of 0.5% by weight in carboxymethyl cellulose. The oral administration was performed once daily via a feeding tube for 28 days. The urine output was measured daily throughout the 28 days when IBT-30 was administered.

293A cells = assay: Cytoprotection under endoplasmic reticulum stress conditions (Tm-induced cell death); type: cell-based; details: compound concentration inhibiting Tm-induced cell death by 50%, Tm 0.2 µg/mL, reporter cells
Experimental: The reporter cells same as those used in Example 1 were placed in each well of a 96-well assay plate and were treated with Tm at a final concentration of 0.2 µg/mL and the test compound. […]

[3] = system: endoplasmic reticulum stress response induced by Tm; assay: Suppression of endoplasmic reticulum stress response (ERSE2-UPRE-AARE-EGFP reporter fluorescence); type: cell-based; details: 293A reporter cells, incubated at 37°C overnight, read-out: Suppression rank of endoplasmic reticulum stress response
Experimental: A solution of the compound synthesized in "(1) Synthesis of benzothiazoimidazolyl compound" was appropriately diluted with a DMEM solution containing 10% fetal bovine serum (FBS), and the diluted solution was added to a 384-well assay plate at 10 µL/well. Next, 30 µL of a culture medium containing the reporter cells and 10 µL of the Tm solution were mixed, and the mixture was added to the 384-well assay plate at 40 µL/well such that the cell density was 18 × 10^3 cells/well, and the whole was incubated at 37°C overnight.
A multi-plate reader Citation 3 (Bio-Tek) was used to determine the EGFP fluorescence intensity (excitation wavelength: 485 nm, fluorescence wavelength: 528 nm) when the test compound was added. A smaller fluorescence intensity indicates more suppression of the increase in activity of the endoplasmic reticulum stress marker induced by Tm.
A "control" containing the Tm solution and, in place of the test compound solution, an equal volume of DMSO was subjected to the measurement of fluorescence intensity in a similar manner. In addition, a "background" containing a solution prepared in the same manner as for the Tm solution except that no Tm was added and containing, in place of the test compound solution, an equal volume of DMSO was subjected to the measurement of fluorescence intensity in a similar manner.
The fluorescence intensity was determined while the concentration of the test compound was varied, and the 50% effective concentration (IC50) of suppressing the endoplasmic reticulum stress response induced by Tm was calculated.

FNDI model mice = assay: Number of mutant protein aggregates (inclusion bodies) in vasopressin neurons of brain tissue; type: in vivo; details: oral, 100 mg/kg/day, once daily for 28 days, inclusion bodies of 4.5 µm or more in vasopressin neurons
Experimental: To FNDI model mice, the above IBT-30-containing preparation was forcibly administered orally once daily for 28 days such that the dosage of IBT-30 was 100 mg/kg/day (n=6). In a similar manner, a vehicle preparation free from IBT-30 was forcibly administered orally (n=6). […]

[4] = system: cell growth inhibition by endoplasmic reticulum stress; details: from WO2019/131656A; read-out: 50% inhibitory concentration for cell growth inhibition by endoplasmic reticulum stress; cited from earlier work

Compound | induction of endogenous molecular chaperones [1] | urine output [2] | IC50 (293A cells) [µM] | IC50 [3] [µM] | number of inclusion bodies (mutant protein aggregates) (FNDI model mice) | IC50 [4] [µM]
COc1cc(-c2cn3c(n2)sc2cc(S(C)(=O)=O)ccc23)ccc1C(F)(F)F [IBT-30, 2-(3-Methoxy-4-(trifluoromethyl)phenyl)-7-(methylsulfonyl)benzo[d]imidazo[2,1-b]thiazole] | not induced | decreases in a dose-dependent manner | 0.004 | ≤ 0.01 | significantly reduced | 
COc1cccc2sc3nc(-c4ccc(Cl)cc4)cn3c12 [IBT-51, 2-(4-chlorophenyl)-5-methoxybenzo[d]imidazo[2,1-b]thiazole] |  |  | 7.72 | > 1 |  | 
CC(C)(C)OC(=O)NCCCOc1ccc(-c2cn3c(n2)sc2cc(S(C)(=O)=O)ccc23)cc1 [IBT-66, tert-butyl (3-(4-(7-(methylsulfonyl)benzo[d]imidazo[2,1-b]thiazol-2-yl)phenoxy)propyl)carbamate] |  |  | 0.83 | 0.1 to 1 |  | 
CS(=O)(=O)c1ccc2c(c1)sc1nc(-c3ccccc3)cn12 [IBT-21, reference compound] |  |  | 0.61 | 0.1 to 1 |  | 0.61
C[C@H](CCC(=O)NCCS(=O)(=O)O)[C@H]1CC[C@H]2[C@@H]3[C@@H](O)C[C@@H]4C[C@H](O)CC[C@]4(C)[C@H]3CC[C@]12C [TUDCA, tauroursodeoxycholic acid, reference compound] |  |  | 20 |  |  | 2100
COc1ccc(-c2cn3c(n2)sc2cc(S(C)(=O)=O)ccc23)cc1 [IBT-43, 2-(4-methoxyphenyl)-7-(methylsulfonyl)benzo[d]imidazo[2,1-b] thiazole] |  |  | 0.17 | 0.1 to 1 |  | 
CC(C)(C)OC(=O)NCCOCCNC(=O)CCc1cccc2c1sc1nc(-c3ccc(C(F)(F)F)cc3)cn12 [IBT-74, tert-butyl (2-(2-(3-(2-(4-(trifluoromethyl)phenyl)benzo[d]imidazo[2,1-b]thiazol-8-yl)propanamido)ethoxy)ethyl)carbamate] |  |  | 3.7 | > 1 |  | 
CCCC(=O)NCCc1csc(-c2ccc(Cl)cc2)n1 [azoramide] |  |  |  |  |  | 86
CC(C)(C)OC(=O)NCCOCCNC(=O)CCc1ccc2c(c1)sc1nc(-c3ccc(C(F)(F)F)cc3)cn12 [IBT-53, tert-butyl (2-(2-(3-(2-(4-(trifluoromethyl)phenyl)benzo[d]imidazo[2,1-b]thiazol-7-yl)propanamido)ethoxy)ethyl)carbamate] |  |  | 4.47 | > 1 |  | 
CNC(=O)CCc1ccc2c(c1)sc1nc(-c3ccc(Cl)cc3)cn12 [IBT-35, 3-(2-(4-chlorophenyl)benzo[d]imidazo[2,1-b]thiazol-7-yl)-N-methylpropanamide] |  |  | 0.04 | 0.01 to 0.1 |  | 
Cc1ccc2c(c1)sc1nc(-c3ccc(C(F)(F)F)cc3)cn12 [IBT-68, 7-methyl-2-(4-(trifluoromethyl)phenyl)benzo[d]imidazo[2,1-b]thiazole] |  |  | 0.1 | 0.01 to 0.1 |  | 
C#CCNC(=O)CCc1ccc2c(c1)sc1nc(-c3ccc(C(F)(F)F)cc3)cn12 [IBT-57] |  |  | 3.8 | > 1 |  | 
CS(=O)(=O)c1ccc2c(c1)sc1nc(-c3ccc(Cl)cc3Cl)cn12 [IBT-44, 2-(2,4-dichlorophenyl)-7-(methylsulfonyl)benzo[d]imidazo[2,1-b]thiazole] |  |  | 0.45 | 0.1 to 1 |  | 
COc1cc(-c2cn3c(n2)sc2cc(S(C)(=O)=O)ccc23)ccc1Cl [IBT-36, 2-(4-chloro-3-methoxyphenyl)-7-(methylsulfonyl)benzo[d]imidazo[2,1-b]thiazole] |  |  | 0.01 | ≤ 0.01 |  | 
CCN(CC)C(=O)CCCS(=O)(=O)c1ccc2c(c1)sc1nc(-c3ccc(C(F)(F)F)cc3)cn12 [IBT-55, N,N-diethyl-4-((2-(4-(trifluoromethyl)phenyl)benzo[d]imidazo[2,1-b]thiazol-7-yl)sulfonyl)butanamide] |  |  | 0.66 | 0.1 to 1 |  | 
CCOc1ccc2c(c1)sc1nc(-c3ccc(Cl)cc3)cn12 [IBT-46, 2-(4-chlorophenyl)-7-ethoxybenzo[d]imidazo[2,1-b]thiazole] |  |  | 0.56 | 0.1 to 1 |  | 
FC(F)(F)c1ccc(-c2cn3c(n2)sc2ccccc23)cc1 [IBT-40, 2-(4-(trifluoromethyl)phenyl)benzo[d]imidazo[2,1-b]thiazole] |  |  | 0.1 | 0.01 to 0.1 |  | 
C#CCCC1(CCOc2cc(-c3cn4c(n3)sc3cc(S(C)(=O)=O)ccc34)ccc2Cl)N=N1 [IBT-63, 2-(3-(2-(3-(but-3-yn-1-yl)-3H-diazirin-3-yl)ethoxy)-4-chlorophenyl)-7-(methylsulfonyl)benzo[d]imidazo[2,1-b]thiazole 2,2,2-trifluoroacetate] |  |  | 0.35 | 0.1 to 1 |  | 
COc1cccc(-c2cn3c(n2)sc2cc(S(C)(=O)=O)ccc23)c1 [IBT-33, 2-(3-methoxyphenyl)-7-(methylsulfonyl)benzo[d]imidazo[2,1-b]thiazole] |  |  | 0.07 | 0.01 to 0.1 |  | 
CNC(=O)CCCS(=O)(=O)c1ccc2c(c1)sc1nc(-c3ccc(C(F)(F)F)cc3)cn12 [IBT-38, N-methyl-4-((2-(4-(trifluoromethyl)phenyl)benzo[d]imidazo[2,1-b]thiazol-7-yl)sulfonyl)butanamide] |  |  | 0.09 | 0.01 to 0.1 |  | 
CNC(=O)CCCNS(=O)(=O)c1ccc2c(c1)sc1nc(-c3ccc(C(F)(F)F)cc3)cn12 [IBT-52, N-methyl-4-((2-(4-(trifluoromethyl)phenyl)benzo[d]imidazo[2,1-b]thiazole)-7-sulfonamido)butanamide] |  |  | 0.42 | 0.1 to 1 |  | 
CNC(=O)CCc1ccc2c(c1)sc1nc(-c3ccc(C(F)(F)F)cc3)cn12 [IBT-37, N-methyl-3-(2-(4-(trifluoromethyl)phenyl)benzo[d]imidazo[2,1-b]thiazol-7-yl)propanamide] |  |  | 0.03 | 0.01 to 0.1 |  | 
C#CCOCc1ccc2c(c1)sc1nc(-c3ccc(Cl)cc3)cn12 [IBT-60, 2-(4-chlorophenyl)-7-((prop-2-yn-1-yloxy)methyl)benzo[d]imidazo[2,1-b]thiazole 2,2,2-trifluoroacetate] |  |  | 0.9 | 0.1 to 1 |  | 
O=C(O)CCCc1ccccc1 [Compound 4-PBA, 4-phenylbutyric acid, reference compound] |  |  | 4000 |  |  | 5400
CS(=O)(=O)c1ccc2c(c1)sc1nc(-c3ccc(Cl)c(Cl)c3)cn12 [IBT-32, 2-(3,4-dichlorophenyl)-7-(methylsulfonyl)benzo[d]imidazo[2,1-b]thiazole] |  |  | 0.02 | 0.01 to 0.1 |  | 
CCN(CC)C(=O)CCc1ccc2c(c1)sc1nc(-c3ccc(C(F)(F)F)cc3)cn12 [IBT-39, N,N-diethyl-3-(2-(4-(trifluoromethyl)phenyl)benzo[d]imidazo[2,1-b]thiazol-7-yl)propanamide] |  |  | 0.08 | 0.01 to 0.1 |  | 
